Results taken from patent publication US11945822B2, “Pyrazolo-triazine and/or pyrazolo-pxrimidine derivatives as selective inhibitor of cyclin dependent kinase” (QURIENT CO., LTD., priority 2018, dated 2024).

Target: T1, CDK1/Cyclin B (Homo sapiens, UniProt P06493)
T1 construct: purchased Invitrogen PR4768C
Assay: Enzymatic assay for CDK1 (FRET based LANCE Ultra kinase assay)
Format: biochemical
Conditions: read-out: CDK1 enzymatic activity (IC50 range)
Outline: (§1)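 Each CDK complex ([…]) phosphorylated 68 nM ULight-MBP peptide with ATP at Km for 60 min at 23° C., against 8 compound doses (4-fold dilutions). EDTA/Eu-anti-phospho-MBP detection, 60 min, then TR-FRET emission at 615 and 665 nm.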

T1 sequence (P06493 whole entry): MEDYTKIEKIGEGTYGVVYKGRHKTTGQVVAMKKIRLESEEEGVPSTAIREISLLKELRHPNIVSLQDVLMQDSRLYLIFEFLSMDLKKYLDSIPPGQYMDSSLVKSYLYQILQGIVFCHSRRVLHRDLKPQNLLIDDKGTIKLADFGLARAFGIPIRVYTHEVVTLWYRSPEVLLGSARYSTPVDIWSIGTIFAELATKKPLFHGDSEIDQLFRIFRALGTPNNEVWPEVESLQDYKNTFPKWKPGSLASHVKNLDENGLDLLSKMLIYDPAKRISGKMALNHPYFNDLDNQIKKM
T1 sequence (P14635 whole entry partner): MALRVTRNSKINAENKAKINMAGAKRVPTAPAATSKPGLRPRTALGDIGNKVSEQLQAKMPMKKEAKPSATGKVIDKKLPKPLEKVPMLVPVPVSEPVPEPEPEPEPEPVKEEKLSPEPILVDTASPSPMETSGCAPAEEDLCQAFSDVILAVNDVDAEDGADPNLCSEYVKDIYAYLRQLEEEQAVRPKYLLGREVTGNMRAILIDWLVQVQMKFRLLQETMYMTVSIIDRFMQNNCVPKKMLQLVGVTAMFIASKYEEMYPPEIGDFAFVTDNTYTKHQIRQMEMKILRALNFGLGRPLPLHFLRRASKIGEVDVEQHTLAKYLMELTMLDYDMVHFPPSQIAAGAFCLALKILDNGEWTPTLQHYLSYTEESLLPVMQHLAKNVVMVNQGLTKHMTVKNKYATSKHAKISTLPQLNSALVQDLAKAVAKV

| IC50 | SMILES |
| --- | --- |
| 100 to 1000 nM | CC(C)c1cnn2c(NCc3ccccc3-n3ccc(CO)n3)nc(N3CCC(N)CC3)nc12 [Compound 181] |
| > 1000 nM | Cc1cccc(-c2cc3ccccc3[nH]2)c1CNc1nc(N2CCC(N)CC2)nc2c(C(C)C)cnn12 [Compound 184] |
| > 1000 nM | COc1cccc(-c2cc3ccccc3[nH]2)c1CNc1nc(N2CCC(N)CC2)nc2c(C(C)C)cnn12 [Compound 186] |

Target: T2, CDK2/Cyclin A (Homo sapiens, UniProt P24941)
T2 construct: purchased Invitrogen PV6290
Assay: Enzymatic assay for CDK2 (FRET based LANCE Ultra kinase assay)
Format: biochemical
Conditions: read-out: CDK2 enzymatic activity (IC50 range)
Outline: as §1

| IC50 | SMILES |
| --- | --- |
| 100 to 1000 nM | CC(C)c1cnn2c(NCc3ccccc3-n3ccc(CO)n3)nc(N3CCC(N)CC3)nc12 [Compound 181] |
| > 1000 nM | Cc1cccc(-c2cc3ccccc3[nH]2)c1CNc1nc(N2CCC(N)CC2)nc2c(C(C)C)cnn12 [Compound 184] |
| > 1000 nM | COc1cccc(-c2cc3ccccc3[nH]2)c1CNc1nc(N2CCC(N)CC2)nc2c(C(C)C)cnn12 [Compound 186] |

Test system: MM.1S
Assay: Cellular MM.1S viability assay (CellTiter-Glo, 72 hours)
Format: cell-based
Conditions: Homo sapiens, MM1.S
Excerpt: Human T-cell acute lymphoblastic leukemia cell line, MOLT-4 (ATCC, Cat #CRL-1582), Human multiple myeloma cell line, RPMI-8226 (Invitrogen, Cat #22400-089) and MM.1S (ATCC, Cat #CRL-2974), NSCLC (Non-small cell lung cancer) cell line H460 (ATCC, Cat #HTB-177), Human colon colorectal carcinoma cell line HCT116 (ATCC, Cat #CCL-247), Human acute monocytic leukemia cell line MV4-11 (ATCC, Cat #CRL-9591), OVCAR-3 (ATCC, Cat #HTB-161) and A2780 (ECACC, Cat #93112519) were obtained from ATCC. Cells were grown in RPMI-1640 media (Invitrogen, Cat #22400-089) supplemented with 10% FBS (Invitrogen, Cat #10099141) and 1% penicillin/streptomycin (Invitrogen, Cat #15070063) and cultured at 37° C., 5% CO2 in a humidified chamber. All cell lines were routinely tested for mycoplasma.
The effect of the CDK7 inhibitor to inhibit the growth of target cancer cells was evaluated through the 72 hours time period of viability assay. Briefly, the candidate cell line ware plated in 96 well plate at the following density of cells respectively. 1×10^4 cells/well for MOLT-4, RPMI-8226, MV4-11 and MM.1S, 5×10^3 for H460, HCT116 and OVCAR-3 and IX 10^3 for A2780. After 24 hours, the cells were treated with various concentrations of the compound (ranging from 0.0015 uM to 10 uM). DMSO solvent without compound served as a control and final DMSO concentration less than 0.1%. After 72 hours of incubation at 37° C., 5% CO2 incubator, cells were analyzed for the viability using the CellTiter-Glo Luminescent Cell Viability Assay (Promega, Cat #G7570). All viability assays were performed in duplicate and Luminescence was read using an Envision (Perkin Elmer, USA). Data was analyzed using XLfit software.

| IC50 | SMILES |
| --- | --- |
| ≤ 1000 nM | CC(C)c1cnn2c(NCc3ccccc3-n3ccc(CO)n3)nc(N3CCC(N)CC3)nc12 [Compound 181] |
| ≤ 1000 nM | Cc1cccc(-c2cc3ccccc3[nH]2)c1CNc1nc(N2CCC(N)CC2)nc2c(C(C)C)cnn12 [Compound 184] |
| 1000 to 10000 nM | COc1cccc(-c2cc3ccccc3[nH]2)c1CNc1nc(N2CCC(N)CC2)nc2c(C(C)C)cnn12 [Compound 186] |

Target: T3, CDK5/p25 (Homo sapiens, UniProt Q00535)
T3 construct: purchased Invitrogen PR8543B
Assay: Enzymatic assay for CDK5 (FRET based LANCE Ultra kinase assay)
Format: biochemical
Conditions: read-out: CDK5 enzymatic activity (IC50 range)
Outline: as §1

T3 sequence (Q00535 whole entry): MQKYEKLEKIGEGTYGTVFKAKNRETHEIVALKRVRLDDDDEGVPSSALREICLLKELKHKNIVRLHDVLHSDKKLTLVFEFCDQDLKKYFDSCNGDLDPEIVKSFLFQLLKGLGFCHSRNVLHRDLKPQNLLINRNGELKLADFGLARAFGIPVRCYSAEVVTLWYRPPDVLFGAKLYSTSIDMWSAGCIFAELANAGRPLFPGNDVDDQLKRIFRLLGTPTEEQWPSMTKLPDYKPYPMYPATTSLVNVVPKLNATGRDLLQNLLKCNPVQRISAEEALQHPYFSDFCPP
T3 sequence (Q15078 99-307 partner limits assumed): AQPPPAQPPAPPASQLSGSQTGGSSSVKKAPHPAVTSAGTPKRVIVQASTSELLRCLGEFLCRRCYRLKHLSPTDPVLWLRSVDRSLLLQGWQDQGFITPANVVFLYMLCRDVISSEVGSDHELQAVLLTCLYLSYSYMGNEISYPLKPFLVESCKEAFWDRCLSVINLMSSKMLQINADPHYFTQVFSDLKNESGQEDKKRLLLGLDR

| IC50 | SMILES |
| --- | --- |
| 100 to 1000 nM | CC(C)c1cnn2c(NCc3ccccc3-n3ccc(CO)n3)nc(N3CCC(N)CC3)nc12 [Compound 181] |
| 100 to 1000 nM | Cc1cccc(-c2cc3ccccc3[nH]2)c1CNc1nc(N2CCC(N)CC2)nc2c(C(C)C)cnn12 [Compound 184] |
| > 1000 nM | COc1cccc(-c2cc3ccccc3[nH]2)c1CNc1nc(N2CCC(N)CC2)nc2c(C(C)C)cnn12 [Compound 186] |

Target: T4, CDK7/Cyclin H/MNAT1 (Homo sapiens, UniProt P50613)
T4 construct: purchased Invitrogen PR6749B
Assay: Enzymatic assay for CDK7 (FRET based LANCE Ultra kinase assay)
Format: biochemical
Conditions: CDK7 over CDK1
Outline: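 Inhibition was measured at Km ATP by time-resolved FRET between a Eu anti-phospho antibody and a phosphorylated ULight peptide. The enzyme was the purified CDK7/cyclin complex, and data were curve-fitted.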

T4 sequence (P50613 whole entry): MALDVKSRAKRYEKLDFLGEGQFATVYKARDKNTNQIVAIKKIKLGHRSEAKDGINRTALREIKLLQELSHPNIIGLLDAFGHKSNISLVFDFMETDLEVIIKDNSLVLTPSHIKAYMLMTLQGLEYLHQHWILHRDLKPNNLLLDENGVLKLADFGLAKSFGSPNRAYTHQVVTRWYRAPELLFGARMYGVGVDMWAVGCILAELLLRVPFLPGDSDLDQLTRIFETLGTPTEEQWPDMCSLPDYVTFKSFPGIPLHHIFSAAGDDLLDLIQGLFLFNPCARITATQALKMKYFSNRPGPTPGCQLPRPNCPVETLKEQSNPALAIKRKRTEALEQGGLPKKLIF
T4 sequence (P51946 whole entry partner): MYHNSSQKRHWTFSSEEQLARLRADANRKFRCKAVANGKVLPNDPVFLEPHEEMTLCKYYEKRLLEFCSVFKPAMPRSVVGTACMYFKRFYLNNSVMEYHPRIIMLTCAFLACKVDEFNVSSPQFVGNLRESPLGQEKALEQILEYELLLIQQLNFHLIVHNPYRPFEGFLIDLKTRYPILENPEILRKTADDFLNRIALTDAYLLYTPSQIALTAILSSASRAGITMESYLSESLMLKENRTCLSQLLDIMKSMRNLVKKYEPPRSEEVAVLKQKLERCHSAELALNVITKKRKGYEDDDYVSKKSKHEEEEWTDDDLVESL
T4 sequence (P51948 whole entry partner): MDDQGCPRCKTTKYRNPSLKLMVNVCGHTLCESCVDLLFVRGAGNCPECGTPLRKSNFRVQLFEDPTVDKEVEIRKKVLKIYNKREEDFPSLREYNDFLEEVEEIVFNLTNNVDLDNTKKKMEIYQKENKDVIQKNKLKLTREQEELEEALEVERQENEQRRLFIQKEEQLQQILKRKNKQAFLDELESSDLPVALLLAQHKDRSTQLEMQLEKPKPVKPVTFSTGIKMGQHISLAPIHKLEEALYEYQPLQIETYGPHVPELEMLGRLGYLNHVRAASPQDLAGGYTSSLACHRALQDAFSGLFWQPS

| CDK1/CDK7: Selectivity of CDK7 inhibition over CDK1 inhibition | SMILES |
| --- | --- |
| A (A=greater than 200 fold) | Cc1cccc(-c2cc3ccccc3[nH]2)c1CNc1nc(N2CCC(N)CC2)nc2c(C(C)C)cnn12 [Compound 184] |
| A (A=greater than 200 fold) | COc1cccc(-c2cc3ccccc3[nH]2)c1CNc1nc(N2CCC(N)CC2)nc2c(C(C)C)cnn12 [Compound 186] |

| SMILES | CDK1/CDK7: Selectivity of CDK7 inhibition over CDK1 inhibition |
| --- | --- |
| CC(C)c1cnn2c(NCc3ccccc3-n3ccc(CO)n3)nc(N3CCC(N)CC3)nc12 [Compound 181] | B (B=less than 200 fold, but greater than 20 fold) |

Same assay, conditions: CDK7 over CDK2

| CDK2/CDK7: Selectivity of CDK7 inhibition over CDK2 inhibition | SMILES |
| --- | --- |
| A (A=greater than 200 fold) | Cc1cccc(-c2cc3ccccc3[nH]2)c1CNc1nc(N2CCC(N)CC2)nc2c(C(C)C)cnn12 [Compound 184] |
| A (A=greater than 200 fold) | COc1cccc(-c2cc3ccccc3[nH]2)c1CNc1nc(N2CCC(N)CC2)nc2c(C(C)C)cnn12 [Compound 186] |

| SMILES | CDK2/CDK7: Selectivity of CDK7 inhibition over CDK2 inhibition |
| --- | --- |
| CC(C)c1cnn2c(NCc3ccccc3-n3ccc(CO)n3)nc(N3CCC(N)CC3)nc12 [Compound 181] | B (B=less than 200 fold, but greater than 20 fold) |

Same assay, conditions: CDK7 over CDK5

| SMILES | CDK5/CDK7: Selectivity of CDK7 inhibition over CDK5 inhibition |
| --- | --- |
| CC(C)c1cnn2c(NCc3ccccc3-n3ccc(CO)n3)nc(N3CCC(N)CC3)nc12 [Compound 181] | B (B=less than 200 fold, but greater than 20 fold) |
| Cc1cccc(-c2cc3ccccc3[nH]2)c1CNc1nc(N2CCC(N)CC2)nc2c(C(C)C)cnn12 [Compound 184] | B (B=less than 200 fold, but greater than 20 fold) |
| COc1cccc(-c2cc3ccccc3[nH]2)c1CNc1nc(N2CCC(N)CC2)nc2c(C(C)C)cnn12 [Compound 186] | B (B=less than 200 fold, but greater than 20 fold) |

Same assay, conditions: read-out: CDK7 enzymatic activity (IC50 range)

| IC50 | SMILES |
| --- | --- |
| < 100 nM | CC(C)c1cnn2c(NCc3ccccc3-n3ccc(CO)n3)nc(N3CCC(N)CC3)nc12 [Compound 181] |
| < 100 nM | Cc1cccc(-c2cc3ccccc3[nH]2)c1CNc1nc(N2CCC(N)CC2)nc2c(C(C)C)cnn12 [Compound 184] |
| < 100 nM | COc1cccc(-c2cc3ccccc3[nH]2)c1CNc1nc(N2CCC(N)CC2)nc2c(C(C)C)cnn12 [Compound 186] |

Test system: HCT116
Assay: Cellular HCT116 viability assay (CellTiter-Glo, 72 hours)
Format: cell-based
Conditions: Homo sapiens, HCT-116
Outline: (§2)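 Growth inhibition is assessed over a 72-hour incubation at 37 °C in 5% CO2, relative to DMSO vehicle (final concentration less than 0.1%). Luminescence from CellTiter-Glo serves as the viability signal.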

| IC50 | SMILES |
| --- | --- |
| < 1000 nM | CC(C)c1cnn2c(NCc3ccccc3-n3ccc(CO)n3)nc(N3CCC(N)CC3)nc12 [Compound 181] |
| < 1000 nM | Cc1cccc(-c2cc3ccccc3[nH]2)c1CNc1nc(N2CCC(N)CC2)nc2c(C(C)C)cnn12 [Compound 184] |

Test system: MV4-11
Assay: Cellular MV4-11 viability assay (CellTiter-Glo, 72 hours)
Format: cell-based
Conditions: Homo sapiens
Outline: as §2

| IC50 | SMILES |
| --- | --- |
| < 1000 nM | CC(C)c1cnn2c(NCc3ccccc3-n3ccc(CO)n3)nc(N3CCC(N)CC3)nc12 [Compound 181] |
| < 1000 nM | Cc1cccc(-c2cc3ccccc3[nH]2)c1CNc1nc(N2CCC(N)CC2)nc2c(C(C)C)cnn12 [Compound 184] |
| 1000 to 10000 nM | COc1cccc(-c2cc3ccccc3[nH]2)c1CNc1nc(N2CCC(N)CC2)nc2c(C(C)C)cnn12 [Compound 186] |

Test system: H460
Assay: Cellular H460 viability assay (CellTiter-Glo, 72 hours)
Format: cell-based
Conditions: Homo sapiens, NCI-H460
Outline: as §2

| IC50 | SMILES |
| --- | --- |
| < 1000 nM | CC(C)c1cnn2c(NCc3ccccc3-n3ccc(CO)n3)nc(N3CCC(N)CC3)nc12 [Compound 181] |
| < 1000 nM | Cc1cccc(-c2cc3ccccc3[nH]2)c1CNc1nc(N2CCC(N)CC2)nc2c(C(C)C)cnn12 [Compound 184] |
| 1000 to 10000 nM | COc1cccc(-c2cc3ccccc3[nH]2)c1CNc1nc(N2CCC(N)CC2)nc2c(C(C)C)cnn12 [Compound 186] |
